From patent publication US20260027068A1, “METHODS OF ADM[…]-KETAMINE” (Perception Neuroscience, Inc., priority 2022, published 2026)

Assays:
subjects with TRD = conditions: single IV infusion 0.5 mg/kg; 7 subjects with TRD; cited from earlier work
[1] = Oxygen saturation (pulse oximetry, SpO2)
Experimental: The Investigational Medicinal Product (IMP) R(−)-ketamine hydrochloride in sterile water for intravenous injection was investigated as an […] treatment of TRD. The International Union of Pure and Applied Chemistry (IUPAC) name is of the IMP is (2R)-2-(2-chlorophenyl)-2-(methylamino)cyclohexan-1-one. Subjects received the solution at either 30 mg or 60 mg dose, or a placebo. The IMP or placebo was administered on Day 1 as a single IV infusion via an electronic infusion pump over 40 minutes. The duration of study participation for each subject was up to 29 days including a screening period, a 3-day in-clinic visit, and 2 follow-up visits. 101 subjects were enrolled in approximately 20 study centers in the EU and the US.
Tympanic or temporal temperature, heart rate, blood pressure (SBP/DBP), respiratory rate, and SpO2 were assessed. Blood pressure and pulse measurements will be assessed with a completely automated device while the subject is supine or semi-supine. Manual techniques will be used only if an automated device is not available. Blood pressure and pulse measurements should be preceded by at least 5 minutes of rest for the subject in a quiet setting without distractions (e.g., television, cell phones). An abnormal blood pressure value at screening may be repeated once after 5 minutes of relaxation to determine the subject's eligibility. Blood pressure was recorded using the same arm and position (supine or semi-supine) throughout the study, where possible. Vital signs (to be taken before blood collection for laboratory tests) consisted of 1 pulse and 3 blood pressure measurements (3 consecutive blood pressure readings will be recorded at intervals of at least 1 minute). The average of the 3 blood pressure readings was recorded in the CRF. A pulse oximeter was used to measure peripheral capillary oxygen saturation (SpO2) continuously from pre-dose until 4-hours post-dose. A pulse oximeter was clipped onto the finger or foot of the subject, and light will be sent through the finger or foot and measured on the other side.
In these tables, baseline value is defined as the last non-missing value prior to study drug administration.

CN[C@@]1(c2ccccc2Cl)CCCCC1=O.Cl [R(−)-ketamine, (2R)-2-(2-chlorophenyl)-2-(methylamino)cyclohexan-1-one]
Antidepressant effects and safety profile (subjects with TRD): fast-onset and sustained antidepressant effects with a favorable safety profile
Oxygen Saturation, Max ([1]; 30 mg, Day 1, 15 minutes): 100%
Oxygen Saturation, Mean ([1]; 30 mg, Day 1, 15 minutes): 98.3%
Oxygen Saturation, Median ([1]; 30 mg, Day 1, 15 minutes): 98.0%
Oxygen Saturation, Min ([1]; 30 mg, Day 1, 15 minutes): 96%
Oxygen Saturation, Max ([1]; 30 mg, Day 1, 40 minutes): 99%
Oxygen Saturation, Mean ([1]; 30 mg, Day 1, 40 minutes): 98.3%
Oxygen Saturation, Median ([1]; 30 mg, Day 1, 40 minutes): 98.0%
Oxygen Saturation, Min ([1]; 30 mg, Day 1, 40 minutes): 96%
Oxygen Saturation, Max ([1]; 30 mg, Day 1, 60 minutes): 100%
Oxygen Saturation, Mean ([1]; 30 mg, Day 1, 60 minutes): 98.2%
Oxygen Saturation, Median ([1]; 30 mg, Day 1, 60 minutes): 98.0%
Oxygen Saturation, Min ([1]; 30 mg, Day 1, 60 minutes): 96%
Oxygen Saturation, Max ([1]; 30 mg, Day 1, 2 hours): 100%
Oxygen Saturation, Mean ([1]; 30 mg, Day 1, 2 hours): 98.4%
Oxygen Saturation, Median ([1]; 30 mg, Day 1, 2 hours): 99.0%
Oxygen Saturation, Min ([1]; 30 mg, Day 1, 2 hours): 97%
Oxygen Saturation, Max ([1]; 30 mg, Day 1, 4 hours): 100%
Oxygen Saturation, Mean ([1]; 30 mg, Day 1, 4 hours): 98.3%
Oxygen Saturation, Median ([1]; 30 mg, Day 1, 4 hours): 98.0%
Oxygen Saturation, Min ([1]; 30 mg, Day 1, 4 hours): 96%
Oxygen Saturation, Change from Baseline, Max ([1]; 30 mg, to Day 1, 15 minutes): 2%
Oxygen Saturation, Change from Baseline, Mean ([1]; 30 mg, to Day 1, 15 minutes): −0.3%
Oxygen Saturation, Change from Baseline, Median ([1]; 30 mg, to Day 1, 15 minutes): 0.0%
Oxygen Saturation, Change from Baseline, Min ([1]; 30 mg, to Day 1, 15 minutes): −3%
Oxygen Saturation, Change from Baseline, Max ([1]; 30 mg, to Day 1, 40 minutes): 2%
Oxygen Saturation, Change from Baseline, Mean ([1]; 30 mg, to Day 1, 40 minutes): −0.4%
Oxygen Saturation, Change from Baseline, Median ([1]; 30 mg, to Day 1, 40 minutes): 0.0%
Oxygen Saturation, Change from Baseline, Min ([1]; 30 mg, to Day 1, 40 minutes): −2%
Oxygen Saturation, Change from Baseline, Max ([1]; 30 mg, to Day 1, 60 minutes): 1%
Oxygen Saturation, Change from Baseline, Mean ([1]; 30 mg, to Day 1, 60 minutes): −0.5%
Oxygen Saturation, Change from Baseline, Median ([1]; 30 mg, to Day 1, 60 minutes): 0.0%
Oxygen Saturation, Change from Baseline, Min ([1]; 30 mg, to Day 1, 60 minutes): −3%
Oxygen Saturation, Change from Baseline, Max ([1]; 30 mg, to Day 1, 2 hours): 3%
Oxygen Saturation, Change from Baseline, Mean ([1]; 30 mg, to Day 1, 2 hours): −0.2%
Oxygen Saturation, Change from Baseline, Median ([1]; 30 mg, to Day 1, 2 hours): 0.0%
Oxygen Saturation, Change from Baseline, Min ([1]; 30 mg, to Day 1, 2 hours): −2%
Oxygen Saturation, Change from Baseline, Max ([1]; 30 mg, to Day 1, 4 hours): 3%
Oxygen Saturation, Change from Baseline, Mean ([1]; 30 mg, to Day 1, 4 hours): −0.4%
Oxygen Saturation, Change from Baseline, Median ([1]; 30 mg, to Day 1, 4 hours): 0.0%
Oxygen Saturation, Change from Baseline, Min ([1]; 30 mg, to Day 1, 4 hours): −3%
Oxygen Saturation, Max ([1]; 60 mg, Day 1, 15 minutes): 100%
Oxygen Saturation, Mean ([1]; 60 mg, Day 1, 15 minutes): 98.2%
Oxygen Saturation, Median ([1]; 60 mg, Day 1, 15 minutes): 98.0%
Oxygen Saturation, Min ([1]; 60 mg, Day 1, 15 minutes): 96%
Oxygen Saturation, Max ([1]; 60 mg, Day 1, 40 minutes): 100%
Oxygen Saturation, Mean ([1]; 60 mg, Day 1, 40 minutes): 98.1%
Oxygen Saturation, Median ([1]; 60 mg, Day 1, 40 minutes): 98.0%
Oxygen Saturation, Min ([1]; 60 mg, Day 1, 40 minutes): 95%
Oxygen Saturation, Max ([1]; 60 mg, Day 1, 60 minutes): 100%
Oxygen Saturation, Mean ([1]; 60 mg, Day 1, 60 minutes): 98.1%
Oxygen Saturation, Median ([1]; 60 mg, Day 1, 60 minutes): 98.0%
Oxygen Saturation, Min ([1]; 60 mg, Day 1, 60 minutes): 95%
Oxygen Saturation, Max ([1]; 60 mg, Day 1, 2 hours): 100%
Oxygen Saturation, Mean ([1]; 60 mg, Day 1, 2 hours): 98.2%
Oxygen Saturation, Median ([1]; 60 mg, Day 1, 2 hours): 98.0%
Oxygen Saturation, Min ([1]; 60 mg, Day 1, 2 hours): 97%
Oxygen Saturation, Max ([1]; 60 mg, Day 1, 4 hours): 100%
Oxygen Saturation, Mean ([1]; 60 mg, Day 1, 4 hours): 98.3%
Oxygen Saturation, Median ([1]; 60 mg, Day 1, 4 hours): 99.0%
Oxygen Saturation, Min ([1]; 60 mg, Day 1, 4 hours): 96%
Oxygen Saturation, Change from Baseline, Max ([1]; 60 mg, to Day 1, 15 minutes): 4%
Oxygen Saturation, Change from Baseline, Mean ([1]; 60 mg, to Day 1, 15 minutes): 0.0%
Oxygen Saturation, Change from Baseline, Median ([1]; 60 mg, to Day 1, 15 minutes): 0.0%
Oxygen Saturation, Change from Baseline, Min ([1]; 60 mg, to Day 1, 15 minutes): −2%
Oxygen Saturation, Change from Baseline, Max ([1]; 60 mg, to Day 1, 40 minutes): 2%
Oxygen Saturation, Change from Baseline, Mean ([1]; 60 mg, to Day 1, 40 minutes): −0.1%
Oxygen Saturation, Change from Baseline, Median ([1]; 60 mg, to Day 1, 40 minutes): 0.0%
Oxygen Saturation, Change from Baseline, Min ([1]; 60 mg, to Day 1, 40 minutes): −2%
Oxygen Saturation, Change from Baseline, Max ([1]; 60 mg, to Day 1, 60 minutes): 3%
Oxygen Saturation, Change from Baseline, Mean ([1]; 60 mg, to Day 1, 60 minutes): −0.1%
Oxygen Saturation, Change from Baseline, Median ([1]; 60 mg, to Day 1, 60 minutes): 0.0%
Oxygen Saturation, Change from Baseline, Min ([1]; 60 mg, to Day 1, 60 minutes): −4%
Oxygen Saturation, Change from Baseline, Max ([1]; 60 mg, to Day 1, 2 hours): 3%
Oxygen Saturation, Change from Baseline, Mean ([1]; 60 mg, to Day 1, 2 hours): 0.0%
Oxygen Saturation, Change from Baseline, Median ([1]; 60 mg, to Day 1, 2 hours): 0.0%
Oxygen Saturation, Change from Baseline, Min ([1]; 60 mg, to Day 1, 2 hours): −2%
Oxygen Saturation, Change from Baseline, Max ([1]; 60 mg, to Day 1, 4 hours): 1%
Oxygen Saturation, Change from Baseline, Mean ([1]; 60 mg, to Day 1, 4 hours): 0.2%
Oxygen Saturation, Change from Baseline, Median ([1]; 60 mg, to Day 1, 4 hours): 0.0%
Oxygen Saturation, Change from Baseline, Min ([1]; 60 mg, to Day 1, 4 hours): −2%
